This note sets out measurements from ChEMBL document CHEMBL4732190, “Identification of Potent and Long-Acting Single-Chain Peptide Mimetics of Human Relaxin-2 for Cardiovascular Diseases” (J Med Chem, 2021).

Series [1] addresses T1, Relaxin receptor 1 (Homo sapiens) (UniProt Q9HBX9).
T1 sequence (whole entry): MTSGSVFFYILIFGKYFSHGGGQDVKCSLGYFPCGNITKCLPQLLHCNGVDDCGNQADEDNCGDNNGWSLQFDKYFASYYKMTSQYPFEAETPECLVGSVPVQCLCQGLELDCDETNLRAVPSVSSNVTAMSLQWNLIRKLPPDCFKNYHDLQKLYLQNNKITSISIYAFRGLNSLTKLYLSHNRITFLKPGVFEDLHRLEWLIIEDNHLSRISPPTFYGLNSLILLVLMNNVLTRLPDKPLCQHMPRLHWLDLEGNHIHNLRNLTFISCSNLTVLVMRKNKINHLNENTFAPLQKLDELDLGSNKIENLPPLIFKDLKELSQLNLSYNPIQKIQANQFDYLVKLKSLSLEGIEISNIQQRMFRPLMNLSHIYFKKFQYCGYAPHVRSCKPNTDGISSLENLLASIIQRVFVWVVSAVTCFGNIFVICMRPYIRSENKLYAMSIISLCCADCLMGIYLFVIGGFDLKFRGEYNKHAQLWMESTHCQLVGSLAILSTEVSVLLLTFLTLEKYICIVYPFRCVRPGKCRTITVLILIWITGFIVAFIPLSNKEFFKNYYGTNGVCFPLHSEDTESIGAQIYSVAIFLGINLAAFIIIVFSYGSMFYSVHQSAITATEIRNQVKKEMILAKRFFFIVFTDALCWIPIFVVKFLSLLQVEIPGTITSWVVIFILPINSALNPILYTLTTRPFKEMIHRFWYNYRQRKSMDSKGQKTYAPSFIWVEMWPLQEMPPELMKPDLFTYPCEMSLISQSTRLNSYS
The series is described as follows: Selectivity ratio of EC50 for agonist activity at RXFP1 endogenously expressed in human OVCAR-5 cells in presence of 2 % HSA to EC50 for agonist activity at RXFP1 endogenously expressed in human OVCAR-5 cells in absence of HSA. The format is cell-based.

A short description of series [2]: Stability in human blood assessed as parent compound at 5 uM remaining after 4 hrs. The format is ADME, tissue-based. The conditions noted are these: read-out: Stabilty.
Series [3] in a line: Half life in Sprague-Dawley rat at 1 mg/kg, iv measured upto 72 hrs by LC-HRMS analysis. The format is ADME, organism-based. Conditions: in vivo.
Series [4] has as its target T2, Relaxin receptor 1 (Homo sapiens, UniProt Q9HBX9).
T2 sequence (Q9HBX9 whole entry): T1 sequence (whole entry)
Put plainly: Agonist activity at RXFP1 endogenously expressed in human OVCAR-5 cells assessed as increase in IBMX-induced cAMP accumulation pretreated with IBMX for 40 mins followed by compound addition and measured after 30 mins in presence of 2 % HSA by HTRF assay. The format is functional, cell-based.

Series [5] addresses T2, Relaxin receptor 1. Put plainly: Agonist activity at RXFP1 endogenously expressed in human OVCAR-5 cells assessed as increase in IBMX-induced cAMP accumulation pretreated with IBMX for 40 mins followed by compound addition and measured after 30 mins by HTRF assay. The format is functional, cell-based. A general note: Changes in cAMP serve as a functional read-out for many G protein-coupled receptors.

Series [6] is described as follows: Stability in rat blood assessed as parent compound at 5 uM remaining after 4 hrs. The format is ADME, tissue-based. The conditions noted are these: read-out: Stabilty.
For series [7], the target named is T1, Relaxin receptor 1 (Homo sapiens). The series is described as follows: Agonist activity at RXFP1 endogenously expressed in human OVCAR-5 cells assessed as increase in IBMX-induced cAMP accumulation pretreated with IBMX for 40 mins followed by compound addition and measured after 30 mins by HTRF assay relative to relaxin. The format is functional, cell-based. Conditions: filed as agonist.

Series [8] addresses T3, Relaxin receptor 1 (Rattus norvegicus, UniProt Q6R6I6).
T3 sequence (Q6R6I6 whole entry): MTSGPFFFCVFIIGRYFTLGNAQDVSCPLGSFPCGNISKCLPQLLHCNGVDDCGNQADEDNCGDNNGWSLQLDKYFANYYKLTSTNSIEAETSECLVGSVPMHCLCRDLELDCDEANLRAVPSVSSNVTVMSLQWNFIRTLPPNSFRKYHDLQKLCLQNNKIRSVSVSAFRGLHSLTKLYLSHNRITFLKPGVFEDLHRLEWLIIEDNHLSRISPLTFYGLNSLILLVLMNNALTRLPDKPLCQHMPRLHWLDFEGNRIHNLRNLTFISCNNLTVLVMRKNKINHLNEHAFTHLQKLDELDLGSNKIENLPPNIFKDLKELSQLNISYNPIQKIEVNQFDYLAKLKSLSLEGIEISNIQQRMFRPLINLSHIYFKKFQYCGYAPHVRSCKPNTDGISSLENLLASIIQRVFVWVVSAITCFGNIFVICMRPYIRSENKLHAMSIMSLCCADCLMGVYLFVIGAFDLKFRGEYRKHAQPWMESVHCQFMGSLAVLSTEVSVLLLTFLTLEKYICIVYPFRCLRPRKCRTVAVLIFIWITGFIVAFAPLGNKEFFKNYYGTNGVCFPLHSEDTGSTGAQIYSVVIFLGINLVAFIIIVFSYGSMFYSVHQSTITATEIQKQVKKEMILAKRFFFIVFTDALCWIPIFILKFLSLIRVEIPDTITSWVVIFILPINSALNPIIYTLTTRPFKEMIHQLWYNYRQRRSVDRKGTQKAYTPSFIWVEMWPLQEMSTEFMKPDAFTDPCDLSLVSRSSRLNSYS
Put plainly: Agonist activity at rat RXFP1 expressed in human […] cells assessed as increase in IBMX-induced cAMP accumulation pretreated with IBMX for 40 mins followed by compound addition and measured after 30 mins by HTRF assay. The format is cell-based, HEK293.

A short description of series [9]: Stability in rat plasma assessed as parent compound remaining level at 5 uM remaining after 4 hrs. The format is ADME, cell-free. The conditions noted are these: read-out: Stabilty.
For series [10], the target named is T4, Relaxin receptor 1 (Rattus norvegicus) (UniProt Q6R6I6).
T4 sequence (whole entry): T3 sequence (Q6R6I6 whole entry)
Put plainly: Agonist activity at rat RXFP1 expressed in human […] cells assessed as increase in IBMX-induced cAMP accumulation pretreated with IBMX for 40 mins followed by compound addition and measured after 30 mins by HTRF assay relative to control. The format is cell-based. Conditions: HEK293, filed as agonist.

A short description of series [11]: Positive chronotropic activity in pithed Sprague-Dawley rat assessed as increase in heart rate at 1000 mg/kg, iv administered as bolus dose measured after 60 mins post dose. The format is ADME, organism-based. The conditions noted are these: in vivo, 1 h.
A short description of series [12]: Positive chronotropic activity in pithed Sprague-Dawley rat assessed as increase in heart rate at 300 microg/kg, iv administered as bolus dose recorded over 60 mins relative to control. The format is ADME, organism-based. Conditions: in vivo, 0.3 mg/kg, 1 h, dose 300 µg/kg.
Series [13] can be described thus: Aqueous solubility of compound in acetate buffer at pH 4.5 measured after 24 hrs by UPLC analysis. The format is physicochemical.
Series [14] can be described thus: Aqueous solubility of compound in phosphate buffer at pH 7.4 measured after 24 hrs by UPLC analysis. The format is physicochemical.
Series [15] is described as follows: Stability in human plasma assessed as parent compound remaining level at 5 uM remaining after 4 hrs. The format is ADME, cell-free. Conditions: read-out: Stabilty.

≈ marks a conversion by molar mass, not a printed value. *1 amine or outer side, *2 acyl side, *3 side chain or, on linkers, in order; H or OH if unused. Where a SMILES comes first, the peptide text is derived from it. [ ]: non-standard residue; d: D form. The star is where a group is joined. X1 = CCCCCCCCCCCCCCCCC(=O)[C@H](CCC(N)=O)N*; β2hAla(2S) = C[C@@H](CN[*:1])C(=O)[*:2]; Nle = CCCC[C@H](N)C(=O)O

For orientation: half-life means the time in which the quantity being followed falls by half. Low readings indicate rapid decline, high ones slow decline. For orientation: EC50 means the concentration giving half of the maximal effect. In general, Emax refers to the maximal effect, on the per cent scale that the assay sets. What is called solubility is the dissolved amount per volume that the medium holds.

Take `CCCCCCCCCCCCCCCCC(=O)[C@H](CCC(N)=O)NC(=O)[C@H](CCC(=O)O)NC(=O)[C@H](CCC(=O)O)NC(=O)[C@H](CCCCN)NC(=O)[C@H](CCCCN)NC(=O)[C@H](CCCNC(=N)N)NC(=O)[C@@H](C)CNC(=O)[C@H](CO)NC(=O)[C@H](Cc1c[nH]c2ccccc12)NC(=O)[C@@H](NC(=O)[C@H](CO)NC(=O)[C@H](CCSC)NC(=O)CNC(=O)[C@H](CCC(=O)O)NC(=O)[C@@H](C)CNC(=O)[C@@H](C)CNC(=O)[C@@H](NC(=O)[C@H](CCC(N)=O)NC(=O)[C@H](C)NC(=O)[C@H](CCCNC(=N)N)NC(=O)[C@@H](NC(=O)[C@H](CCCCN)NC(=O)[C@H](CCC(=O)O)NC(=O)[C@H](CCCNC(=N)N)NC(=O)[C@H](CCC(=O)O)NC(=O)CNC(=O)[C@H](CCC(=O)O)NC(=O)[C@H](CC(C)C)NC(C)=O)C(C)C)[C@@H](C)CC)[C@@H](C)O` (Ac-LEGEREKVRAQI[β2hAla(2S)][β2hAla(2S)]EGMSTWS[β2hAla(2S)]RKKEE-X1): the Ratio EC50 in [1] was > 170. Besides, the figures for the remaining at 4 h, 5 µM in series [2] and in series [6] were 91% and 93%, respectively. Besides, the half-life in series [3] was 4.3 h. The 50% effective concentration (EC50) at Relaxin receptor 1 [4] was > 3000 nM; on Relaxin receptor 1 [5] it was 17.6 nM. For the same compound, the Emax in [7] worked out at 97%.

Regarding `CCCC[C@H](NC(=O)CNC(=O)[C@H](CCC(=O)O)NC(=O)[C@@H](C)CNC(=O)[C@@H](C)CNC(=O)[C@@H](NC(=O)[C@H](CCC(N)=O)NC(=O)[C@H](C)NC(=O)[C@H](CCCNC(=N)N)NC(=O)[C@@H](NC(=O)[C@H](CCCCN)NC(=O)[C@H](CCC(=O)O)NC(=O)[C@H](CCCNC(=N)N)NC(=O)CNC(=O)[C@H](CCC(=O)O)NC(=O)[C@H](CC(C)C)NC(C)=O)C(C)C)[C@@H](C)CC)C(=O)N[C@@H](CO)C(=O)N[C@H](C(=O)N[C@@H](Cc1c[nH]c2ccccc12)C(=O)N[C@@H](CO)C(=O)NC[C@H](C)C(=O)N[C@@H](CCCNC(=N)N)C(=O)N[C@@H](CCCCN)C(=O)N[C@@H](CCCCN)C(N)=O)[C@@H](C)O` (Ac-LEGREKVRAQI[β2hAla(2S)][β2hAla(2S)]EG[Nle]STWS[β2hAla(2S)]RKK-NH2), the EC50 at Relaxin receptor 1 [8] amounted to 5.3 nM; on Relaxin receptor 1 [5] it was 12 nM. Moreover, the remaining at 4 h, 5 µM came out at 55% in series [9] and 64% in [15]. In [3], the half-life was 0.32 h. The maximal response (Emax) was 83% in [10] and 99% in [7]. Further, the Emin in series [11] worked out at 43%. In series [12], the Activity stood at 40%. The values for the solubility at 24 h in series [13] and in series [14] were 3300 µg/mL (≈ 1190 µM) and 2900 µg/mL (≈ 1050 µM), respectively.
